# In patent US12448392B2, “Spiropiperidine derivatives” (89BIO LTD, priority 2016, dated 2025):
# Where a name gives a salt, the structure may show the parent alone.
# Target: T1, recombinant human baculovirus-expressed GST-tagged FASN (Homo sapiens, UniProt P49327)
# T1 construct: GST
# Assay: biochemical
# Settings: 5 nM FASN, 150 μM NADPH, 10 μM acetyl-CoA, 25 μM malonyl-CoA, 90 minutes incubation; read-out: IC50 data for Compounds of Formula I, Activity
# T1 sequence (P49327 whole entry): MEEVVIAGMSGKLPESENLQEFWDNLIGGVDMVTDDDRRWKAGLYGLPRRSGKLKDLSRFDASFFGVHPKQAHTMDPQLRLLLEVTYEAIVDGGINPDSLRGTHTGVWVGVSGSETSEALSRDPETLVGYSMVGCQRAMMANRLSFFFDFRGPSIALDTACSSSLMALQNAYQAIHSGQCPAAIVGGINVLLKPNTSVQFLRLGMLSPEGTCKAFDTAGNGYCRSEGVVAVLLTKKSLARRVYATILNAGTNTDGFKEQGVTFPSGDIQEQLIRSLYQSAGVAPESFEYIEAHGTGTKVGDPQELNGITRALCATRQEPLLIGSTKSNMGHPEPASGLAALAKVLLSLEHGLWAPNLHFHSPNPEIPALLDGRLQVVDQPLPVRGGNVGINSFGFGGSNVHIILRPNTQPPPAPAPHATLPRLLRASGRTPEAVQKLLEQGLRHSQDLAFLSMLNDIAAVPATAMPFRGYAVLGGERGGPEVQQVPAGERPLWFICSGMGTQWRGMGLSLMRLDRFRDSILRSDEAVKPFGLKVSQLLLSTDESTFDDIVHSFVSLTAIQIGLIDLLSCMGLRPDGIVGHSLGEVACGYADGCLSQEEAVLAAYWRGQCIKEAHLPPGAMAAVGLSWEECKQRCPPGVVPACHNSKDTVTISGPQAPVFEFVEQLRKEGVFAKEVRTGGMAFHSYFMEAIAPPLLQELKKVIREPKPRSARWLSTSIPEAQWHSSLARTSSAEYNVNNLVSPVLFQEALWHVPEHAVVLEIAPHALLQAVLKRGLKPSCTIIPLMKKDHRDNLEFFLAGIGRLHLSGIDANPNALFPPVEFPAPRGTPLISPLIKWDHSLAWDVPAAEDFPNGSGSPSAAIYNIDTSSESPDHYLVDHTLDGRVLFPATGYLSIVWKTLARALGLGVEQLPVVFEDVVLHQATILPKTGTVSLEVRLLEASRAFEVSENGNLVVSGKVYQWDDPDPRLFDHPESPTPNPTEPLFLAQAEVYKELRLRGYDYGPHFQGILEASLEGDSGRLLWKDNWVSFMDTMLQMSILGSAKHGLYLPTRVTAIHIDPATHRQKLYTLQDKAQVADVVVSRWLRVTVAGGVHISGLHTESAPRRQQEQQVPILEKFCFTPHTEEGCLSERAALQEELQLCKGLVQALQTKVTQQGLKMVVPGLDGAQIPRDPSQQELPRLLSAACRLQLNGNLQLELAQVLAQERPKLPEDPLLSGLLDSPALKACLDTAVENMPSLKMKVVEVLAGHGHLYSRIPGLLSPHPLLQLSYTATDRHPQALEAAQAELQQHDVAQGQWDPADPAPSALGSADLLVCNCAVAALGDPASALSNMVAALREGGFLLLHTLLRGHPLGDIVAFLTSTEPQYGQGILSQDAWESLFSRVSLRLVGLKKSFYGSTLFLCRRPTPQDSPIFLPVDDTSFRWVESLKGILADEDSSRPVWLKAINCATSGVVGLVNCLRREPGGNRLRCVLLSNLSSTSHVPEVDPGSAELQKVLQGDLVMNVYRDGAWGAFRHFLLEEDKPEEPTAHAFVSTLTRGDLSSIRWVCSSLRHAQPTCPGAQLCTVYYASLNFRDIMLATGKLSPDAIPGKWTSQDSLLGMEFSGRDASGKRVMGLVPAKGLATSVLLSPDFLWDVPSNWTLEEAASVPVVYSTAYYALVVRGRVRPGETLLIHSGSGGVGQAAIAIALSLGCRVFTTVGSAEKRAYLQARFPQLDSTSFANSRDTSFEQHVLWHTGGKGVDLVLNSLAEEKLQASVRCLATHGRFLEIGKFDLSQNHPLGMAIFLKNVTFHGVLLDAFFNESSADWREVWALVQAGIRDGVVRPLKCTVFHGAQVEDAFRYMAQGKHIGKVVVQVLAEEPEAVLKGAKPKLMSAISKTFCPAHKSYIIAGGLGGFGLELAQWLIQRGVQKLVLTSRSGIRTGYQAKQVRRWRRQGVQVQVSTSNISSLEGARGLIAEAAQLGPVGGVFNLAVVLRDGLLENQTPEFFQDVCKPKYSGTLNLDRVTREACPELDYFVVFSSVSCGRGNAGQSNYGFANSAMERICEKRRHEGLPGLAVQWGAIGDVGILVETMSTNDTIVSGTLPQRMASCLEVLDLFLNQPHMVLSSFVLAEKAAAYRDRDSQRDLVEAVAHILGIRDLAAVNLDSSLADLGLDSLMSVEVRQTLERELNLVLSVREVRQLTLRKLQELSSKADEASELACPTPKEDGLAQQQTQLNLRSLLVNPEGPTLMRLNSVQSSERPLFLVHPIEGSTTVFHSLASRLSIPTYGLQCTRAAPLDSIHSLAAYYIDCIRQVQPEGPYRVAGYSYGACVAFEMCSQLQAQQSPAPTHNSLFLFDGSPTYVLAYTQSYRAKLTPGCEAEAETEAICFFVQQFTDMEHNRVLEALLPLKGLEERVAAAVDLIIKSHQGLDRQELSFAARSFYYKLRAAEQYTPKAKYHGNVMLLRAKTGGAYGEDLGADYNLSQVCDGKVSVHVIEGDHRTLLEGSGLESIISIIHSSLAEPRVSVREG
row,IC50,SMILES
1,1 to 99 nM,"Cc1nccc2cc(-c3ccc4c(c3)CCC3(CCN(C(=O)[C@H]5CCCO5)CC3)O4)ccc12 [Example 1, [6-(1-Methyl-6-isoquinolyl)spiro[chromane-2,4′-piperidine]-1′-yl]-[(2R)-tetrahydrofuran-2-yl]methanone, HCl]"
2,1 to 99 nM,"CCC(=O)N1CCC2(CCc3cc(-c4cnc5ccccc5c4C)ccc3O2)CC1 [Example 2, 1-[6-(4-Methyl-3-quinolyl)spiro[chromane-2,4′-piperidine]-1′-yl]propan-1-one, HCl]"
3,1 to 99 nM,"Cc1c(-c2ccc3c(c2)CCC2(CCN(C(=O)C4CC4)CC2)O3)cnc2ccccc12 [Example 3, Cyclopropyl-[6-(4-methyl-3-quinolyl)spiro[chromane-2,4′-piperidine]-1′-yl]-methanone HCl]"
4,1 to 99 nM,"Cc1c(-c2ccc3c(c2)CCC2(CCN(C(=O)[C@H]4CCCO4)CC2)O3)cnc2ccccc12 [Example 4, [6-(4-Methyl-3-quinolyl)spiro[chromane-2,4′-piperidine]-1′-yl]-[(2R)-tetrahydrofuran-2-yl]methanone, HCl]"
5,1 to 99 nM,"O=C([C@H]1CCCO1)N1CCC2(CCc3cc(-c4ccc5c(C6CC6)nccc5c4)ccc3O2)CC1 [Example 5, [6-(1-Cyclopropyl-6-isoquinolyl)spiro[chromane-2,4′-piperidine]-1′-yl]-[(2R)-tetrahydrofuran-2-yl]methanone]"
6,1 to 99 nM,"CCC(=O)N1CCC2(CCc3cc(-c4ccc5cccnc5c4C)ccc3O2)CC1 [Example 6, 1-[6-(8-Methyl-7-quinolyl)spiro[chromane-2,4′-piperidine]-1′-yl]propan-1-one]"
7,1 to 99 nM,"Cc1c(-c2ccc3c(c2)CCC2(CCN(C(=O)C4CC4)CC2)O3)ccc2cccnc12 [Example 7, Cyclopropyl-[6-(8-methyl-7-quinolyl)spiro[chromane-2,4′-piperidine]-1′-yl]methanone, HCl]"
8,1 to 99 nM,"Cc1c(-c2ccc3c(c2)CCC2(CCN(C(=O)[C@H]4CCCO4)CC2)O3)ccc2cccnc12 [Example 8, [6-(8-Methyl-7-quinolyl)spiro[chromane-2,4′-piperidine]-1′-yl]-[(2R)-tetrahydrofuran-2-yl]methanone, HCl]"
9,1 to 99 nM,"CCC(=O)N1CCC2(CCc3cc(-c4ccc5cccnc5c4Cl)ccc3O2)CC1 [Example 9, 1-[6-(8-chloro-7-quinolyl)spiro[chromane-2,4′-piperidine]-1′-yl]propan-1-one]"
10,1 to 99 nM,"O=C(C1CC1)N1CCC2(CCc3cc(-c4ccc5cccnc5c4Cl)ccc3O2)CC1 [Example 10, [6-(8-Chloro-7-quinolyl)spiro[chromane-2,4′-piperidine]-1′-yl]-cyclopropyl-methanone, HCl]"
11,1 to 99 nM,"O=C([C@H]1CCCO1)N1CCC2(CCc3cc(-c4ccc5cccnc5c4Cl)ccc3O2)CC1 [Example 11, [6-(8-Chloro-7-quinolyl)spiro[chromane-2,4′-piperidine]-1′-yl]-[(2R)-tetrahydrofuran-2-yl]methanone, HCl]"
12,1 to 99 nM,"CCC(=O)N1CCC2(CCc3cc(-c4cnc5c(C)cccc5c4)ccc3O2)CC1 [Example 12, 1-[6-(8-Methyl-3-quinolyl)spiro[chromane-2,4′-piperidine]-1′-yl]propan-1-one]"
13,100 to 999 nM,"Cc1cccc2cc(-c3ccc4c(c3)CCC3(CCN(C(=O)C5CC5)CC3)O4)cnc12 [Example 13, Cyclopropyl-[6-(8-methyl-3-quinolyl)spiro[chromane-2,4′-piperidine]-1′-yl]-methanone, HCl]"
14,1 to 99 nM,"Cc1cccc2cc(-c3ccc4c(c3)CCC3(CCN(C(=O)[C@H]5CCCO5)CC3)O4)cnc12 [Example 14, [6-(8-Methyl-3-quinolyl)spiro[chromane-2,4′-piperidine]-1′-yl]-[(2R)-tetrahydrofuran-2-yl]methanone, HCl]"
15,1 to 99 nM,"COc1c(-c2ccc3c(c2)CCC2(CCN(C(=O)C4CC4)CC2)O3)ccc2cccnc12 [Example 15, Cyclopropyl-[6-(8-methoxy-7-quinolyl)spiro[chromane-2,4′-piperidine]-1′-yl]-methanone, HCl]"
